pIC50: −log10 of the molar value.
Assays:
Experiment in all cases: Enzyme Inhibition Assay
Procathepsin L = Procathepsin L (Homo sapiens, UniProt P07711)
Method: (§1) Prior to the addition of substrate, different concentrations of the inhibitor ranging from 100 uM to 0.2 nM were preincubated for 15 min with enzyme to allow the establishment of the enzyme-inhibitor complex. The proteolytic cleavage of N-acyl aminocoumarins by cathepsins was conducted in 96-well plate format and the plate read using a Spectramax (Molecular Devices) plate reader. […] The percent inhibition of the reaction was calculated from a control reaction containing only vehicle. IC50 curves were generated by fitting percent inhibition values to a four parameter logistic model (SOFTMAX PRO, Molecular Devices).

Cathepsin K = target: T1, Cathepsin K (Homo sapiens, UniProt P43235); details: pH 5.5; 22 °C
T1 sequence (P43235 whole entry): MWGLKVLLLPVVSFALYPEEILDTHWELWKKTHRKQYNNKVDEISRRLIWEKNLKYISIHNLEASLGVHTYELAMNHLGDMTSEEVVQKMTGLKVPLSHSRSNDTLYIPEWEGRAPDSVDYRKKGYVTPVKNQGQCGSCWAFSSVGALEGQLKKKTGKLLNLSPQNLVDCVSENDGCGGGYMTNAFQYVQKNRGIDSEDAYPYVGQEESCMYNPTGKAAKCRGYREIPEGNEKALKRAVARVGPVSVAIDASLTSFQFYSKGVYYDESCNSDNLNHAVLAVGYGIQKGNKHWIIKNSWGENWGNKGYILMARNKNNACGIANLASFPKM
Method: as §1

Cathepsin S = Cathepsin S (Homo sapiens, UniProt P25774)
Cathepsin S, sequence (P25774 whole entry): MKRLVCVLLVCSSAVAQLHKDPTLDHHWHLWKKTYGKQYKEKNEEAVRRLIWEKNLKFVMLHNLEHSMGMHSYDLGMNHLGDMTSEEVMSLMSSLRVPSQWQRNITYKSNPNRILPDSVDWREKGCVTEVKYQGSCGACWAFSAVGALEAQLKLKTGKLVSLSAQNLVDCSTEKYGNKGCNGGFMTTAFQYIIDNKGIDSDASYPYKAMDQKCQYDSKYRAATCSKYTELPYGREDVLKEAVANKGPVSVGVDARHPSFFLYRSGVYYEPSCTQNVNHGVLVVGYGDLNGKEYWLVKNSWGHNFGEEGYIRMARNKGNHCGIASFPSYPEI
Method: as §1

Procathepsin L, sequence (P07711 whole entry): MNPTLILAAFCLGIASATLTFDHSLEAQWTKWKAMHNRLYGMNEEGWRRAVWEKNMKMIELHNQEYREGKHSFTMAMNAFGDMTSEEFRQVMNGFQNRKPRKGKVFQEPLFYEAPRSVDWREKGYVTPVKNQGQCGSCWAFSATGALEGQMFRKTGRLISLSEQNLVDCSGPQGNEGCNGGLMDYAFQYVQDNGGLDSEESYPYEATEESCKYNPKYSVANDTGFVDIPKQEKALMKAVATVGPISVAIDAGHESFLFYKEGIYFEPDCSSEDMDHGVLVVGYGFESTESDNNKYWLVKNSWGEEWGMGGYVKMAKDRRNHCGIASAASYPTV

## CC(C)CC(C(=O)NCC#N)c1cccc(-c2ccccn2)c1 (centres undefined) [N-(cyanomethyl)-4-methyl-2-[3-(pyridin-2-yl)phenyl]pentanamide]
Procathepsin L
  pIC50: 5.23
Cathepsin K
  pIC50: 6.10
Cathepsin S
  pIC50: 5.09

## CC(C)C[C@@H](C(=O)NCC#N)c1cccc(-c2ccc(-c3nnn[nH]3)cc2)c1 [(2R)-N-(cyanomethyl)-4-methyl-2-{3-[4-(1H-1,2,3,4-tetrazol-5-yl)phenyl]phenyl}pentanamide]
Procathepsin L
  pIC50: < 5.00
Cathepsin K
  pIC50: 5.59
Cathepsin S
  pIC50: < 5.00

## CC(C)CC(C(=O)NCC#N)c1cccc(-c2cccc(N3CCNCC3)c2)c1 (centres undefined) [N-(cyanomethyl)-4-methyl-2-{3-[3-(piperazin-1-yl)phenyl]phenyl}pentanamide]
Procathepsin L
  pIC50: < 5.00
Cathepsin K
  pIC50: 6.67
Cathepsin S
  pIC50: < 5.00

## CC(C)CC(C(=O)NCC#N)c1cccc(-c2ccccc2N2CCNCC2)c1 (centres undefined) [N-(cyanomethyl)-4-methyl-2-{3-[2-(piperazin-1-yl)phenyl]phenyl}pentanamide]
Procathepsin L
  pIC50: 6.47
Cathepsin K
  pIC50: 7.24
Cathepsin S
  pIC50: 6.28

## CC(C)CC(C(=O)NCC#N)c1cccc(-c2ccccc2N2CCOCC2)c1 (centres undefined) [N-(cyanomethyl)-4-methyl-2-{3-[2-(morpholin-4-yl)phenyl]phenyl}pentanamide]
Procathepsin L
  pIC50: 6.04
Cathepsin K
  pIC50: 6.21
Cathepsin S
  pIC50: 5.47

## CC(C)CC(C(=O)NCC#N)c1cccc(-c2ccncc2)c1 (centres undefined) [N-(cyanomethyl)-4-methyl-2-[3-(pyridin-4-yl)phenyl]pentanamide]
Procathepsin L
  pIC50: 5.24
Cathepsin K
  pIC50: 6.82
Cathepsin S
  pIC50: 5.76

## CC(C)CC(C(=O)NCC#N)c1cccc(-c2cccnc2)c1 (centres undefined) [N-(cyanomethyl)-4-methyl-2-[3-(pyridin-3-yl)phenyl]pentanamide]
Procathepsin L
  pIC50: 5.25
Cathepsin K
  pIC50: 6.31
Cathepsin S
  pIC50: < 5.00

## CC(C)CC(C(=O)NCC#N)c1cccc(-c2cccc(N3CCOCC3)c2)c1 (centres undefined) [N-(cyanomethyl)-4-methyl-2-{3-[3-(morpholin-4-yl)phenyl]phenyl}pentanamide]
Procathepsin L
  pIC50: < 5.00
Cathepsin K
  pIC50: 6.20
Cathepsin S
  pIC50: < 5.00
